The subject of data set [1] is p53^tsneo transfected DP16-1 cells. Description: Viability of p53^tsneo transfectants in media containing 1.6% DMSO. The note with it: 37.5° C., logarithmically growing transfectants. The format is cell-based, mouse. As to the method:
DP16-1 MEL cells were grown in Dulbecco modified minimal essential medium (DMEM) supplemented with 10% calf serum, 2 mM glutamine, 100 U of penicillin per ml, and 100 μg of […] per ml. DNA transfections were performed by electroporation (Prochownik et al., supra). Transfection mixes consisted of 1×10^7 cells in 400 μl transfection buffer (272 mM sucrose, 7 mM phosphate (pH 7.4), 1 mM MgCl2) with either 10 μg p53^tsneo, or 10 μg pSV-2neo, linearized with Bam HI. Transfected cells were selected in media containing 1 mg/ml geneticin (G418; GIBCO). Single-cell clones were isolated by limiting cell dilution in 96-well microtiter plates. To characterize the consequences of enforced expression of p53 on differentiation, logarithmically growing transfectants were exposed to media containing 1.6% dimethyl sulfoxide (DMSO) and incubated at 37.5° C. Media was changed every other day. Cells underwent growth arrest and subsequently died over a period of 48-96 hours (FIG. 8A; DP16-1 cells, ______, p53^tsneo transfected DP16-1 cells, - - -, and DP16-1 cells co-transfected with c-myb and p53^tsneo, _._._). Viable cells were isolated by centrifugation through Ficoll-paque (Pharmacia). […] This is in contrast to untransfected control DP16-1 cells which, when grown in media containing DMSO, downregulate c-myb mRNA and differentiate while remaining viable (FIG. 8A & 8B). […]

Data set [2] has as its system p53^tsneo clones. Description: DMSO-induced differentiation of p53^tsneo clones, benzidine staining. The format is cell-based, mouse. The note with it: 5 days exposure to 1.6% DMSO at 37.5° C., viable cells isolated through Ficoll-paque. How it is done:
To characterize the consequences of enforced expression of p53 on differentiation, logarithmically growing transfectants were exposed to media containing 1.6% dimethyl sulfoxide (DMSO) and incubated at 37.5° C. Media was changed every other day. Cells underwent growth arrest and subsequently died over a period of 48-96 hours (FIG. 8A; DP16-1 cells, ______, p53^tsneo transfected DP16-1 cells, - - -, and DP16-1 cells co-transfected with c-myb and p53^tsneo, _._._). Viable cells were isolated by centrifugation through Ficoll-paque (Pharmacia). […] This is in contrast to untransfected control DP16-1 cells which, when grown in media containing DMSO, downregulate c-myb mRNA and differentiate while remaining viable (FIG. 8A & 8B). As expected, the p53^ts protein was located in the cytoplasm of the cells growing at 37.5° C. in the absence of DMSO (FIG. 9A, panel a; C4 p53^tsneo DP16-1 cells). […] Thus despite the fact that the cells were grown at 37.5° C., DMSO caused the p53^ts to behave as wild-type p53 tumor suppressor and induced apoptotic cell death. MEL cells can also exit the cell cycle by being stimulated to terminally differentiate. DMSO was used to induce differentiation of p53^tsneo clones at 37.5° C. After 5 days exposure to 1.6% DMSO, viable cells were isolated by centrifugation through Ficoll-paque. […] These cells were placed at 32.5° C. and viability monitored. […]

The subject of data set [3] is p53^tsneo/pMbm1-dhfr co-transfectants (DP16-1 MEL cells). Description: Viability of amplified p53^tsneo/pMbm1-dhfr co-transfectants in 1.6% DMSO. The note with it: amplified c-myb cultures. In kind it is cell-based, mouse. From the text: To determine how c-myb and p53 interact during MEL cell growth and differentiation, DP16-1 cells were co-transfected with p53^tsneo and pMbm1-dhfr, which encodes a full-length c-myb cDNA under the control of an SV40 promoter (Clarke, et al., supra). […] (FIG. 9A; panel c, C5a p53^tsneo/c-myb transfected DP16-1 cells; panel d, C5a cells). Instead, these cells proliferated for 2-3 days, and then arrested coincident with an increase in benzidine-positive cells (FIG. 11). Viability decreased only after the majority of cells had differentiated. Increased expression of c-myb was selected for by growing transfected cells in higher concentrations of methotrexate (Clarke et al., supra).

The test system of data set [4] is c-myc transfected DP16-1 cells. Description: DMSO-induced differentiation of c-myc transfected DP16-1 cells, benzidine staining. In kind it is cell-based, mouse. The note with it: two days of exposure to medium containing DMSO. From the text: (§1) MEL cell lines invariability contain mutations of the p53 tumor suppressor gene and express either negligible or mutant p53 protein. During MEL differentiation there is a biphasic decline in expression of the c-myc oncogene although enforced expression of c-myc blocks this differentiation. To determine the relationship between mutant p53 and c-myc in cell differentiation, DP16-1 cells (which have deleted both p53 alleles) were transfected with an amplifiable plasmid vector containing a full-length mouse c-myc cDNA with or without plasmid vector containing a mutant p53 cDNA (p53^pro193). The exogenous c-myc cDNA is transcribed in MEL cells and results in increased expression of c-myc mRNA and protein during DMSO-induced differentiation. Extent of differentiation was monitored by benzidine staining (FIGS. 17A and 17B). When MEL cells are exposed to DMSO, differentiation normally occurs over a five day period. In contrast to the parental DP16-1 cells or DP16-1 cells transfected with pSV2LZquad, c-myc transfected DP16-1 cells or underwent accelerated differentiation. […] Furthermore, c-myc transfected DP16-1 cells stopped growing and eventually lost viability when grown in medium containing 1.6% DMSO. Coincident expression of p53^pro193 with c-myc abolished the accelerated DMSO-induced differentiation seen in cells which expressed c-myc alone.

Data set [5] has as its system parental DP16-1 cells. The experiment in a line: DMSO-induced differentiation of parental DP16-1 cells, benzidine staining. The format is cell-based, mouse. The note with it: two days of exposure to medium containing DMSO.
From the text: as §1

Data set [6] is described as follows: Viability of G1-arrested p53tsneo clones (mimosine growth arrest). The format is cell-based. The note with it: mouse, clones C9, C2 and C1 (p53tsneo transfected DP16-1 MEL cells); mimosine 300 μM, late G1 arrest at 37.5° C., after 3-4 days of arrest. As to the method: (§2) The relationship of p53 induced cell death to the cell cycle was studied in transfected clone C9. Clone C9 cells were synchronized in G0/G1 by density arrest (typically at a concentration of 1-2×10^6 cells/ml) for 48-72 hours at 37.5° C. Cells were stimulated to begin cycling by replating into fresh media at a 1:10 split ratio. Growth arrest with mimosine (Sigma) was accomplished by the addition of 300 μM mimosine to logarithmically growing cells for a period of 24 hours.
(§3) To rule out that G1 arrest alone induces cell death, clones C9, C2 and C1 were growth arrested with either mimosine (300 μM) (Watson et al., Cytometry 12:242 (1991)) or isoleucine deprivation (Heintz et al., Proc. Natl. Acad. Sci. USA 79:4083 (1982)) at 37.5° C., both of which result in late Gi arrest.

For data set [7], the system named is clones C9, C2 and C1 (p53^tsneo transfected DP16-1 MEL cells). The data set is described as above. In kind it is cell-based. The conditions noted are these: mouse, 36 h, 300 μM. As to the method:
as §2, §3

The test system of data set [8] is CML cells in bone marrow cell culture. Description: Purging CML cells from low density mononuclear bone marrow cells with antisense myb. The format is cell-based. The conditions noted are these: 40 μg/ml, culture changed two times a day for 1-to-three days, after MIP-1α 300 μg/ml for 24 hours. The source says: The most successful purging of bone marrow cells includes from one-to-three non-overlapping techniques. CML cells display antigens which are not present on the hematopoietic stem cells. A large majority of the CML cells that contaminant Marrow samples can initially be removed using antibodies that recognize these CML-specific antigens. Antibodies that can be used include specificities directed to one or more of the following antigens: CD15, CD33, Glycophorin A, CD10, CD2, CD4 and CD8. Antibody-cell conjugates can be removed by either flow cytometry, immuno-magnetic beads or compliment, for example. The remaining CML cells can be killed by incubating the enriched culture in the presence of c-myb antisense oligonucleotides.
Briefly, mononuclear cells will be isolated from a 5 ml bone marrow aspirate by centrifuging through a ficol-hypaque density gradient. The isolated bone marrow cells (1×10^5 CD34+ progenitor cells) are then cultured in Dexter medium with IL3, SGF and EPO and macrophage inflammatory factor (MIP-1α; 300 μg/ml) for 24 hours and then are cultured in medium containing c-myb antisense oligonucleotides. MIP-1α arrests normal hematopoietic cells in G0 and these cells will therefore be resistant to c-myb antisense. The CML cells, however, are unresponsive to MIP-1α and will continue to cycle. […]

As to `C[S+](C)[O-]` [DMSO, dimethyl sulfoxide], the “Period over which cells died after growth arrest” value in data set [1] was 48 to 96 h. The Benzidine positivity in data set [2] is 70-80%. Moreover, the “Time to loss of viability” value in data set [3] fell in the range of 10 to 14 days. Further, the Cells differentiated in data set [4] is 70-80%. In data set [5], the Differentiation result is listed as “remained largely undifferentiated”.
In general, viability refers to a per cent measure of how many cells are alive, often set against a control. Read a high viability as better survival. On to `NC(Cn1ccc(=O)c(O)c1)C(=O)O` (centres unmarked) [mimosine], for which the viability at 300 μM in data set [6] was approximately 70%. Also, the Viability result in data set [7] is “less than 5%”.
For “c-myb antisense: c-myb antisense oligonucleotide 5′-GTGCCGGGGTCTTCGGGC-3′ (chemistry not given here)”, the “Cells remaining viable in culture” value in data set [8] was “only the normal hematopoietic cells”.

The values above are taken from patent publication US20030045485A1, “P53-MEDIATED APOPTOSIS FOR THE THERAPEUTIC TREATMENT OF DISEASES” (priority 1993, published 2003).
